Source: patent EP4667483A1, “HUMAN TRANSFERRIN RECEPTOR-BINDING PEPTIDE” (JCR Pharmaceuticals Co., Ltd., priority 2023, dated 2024)
Numbered stars: 1 amine (or outer) side, 2 acyl side, 3 side chain; on linkers, the order of the positions; unused ones are H or OH. Bridge positions count the residues as written; N and C are the ends. Square brackets hold non-standard residues; d marks the D form. Side chains are listed from the residue outwards. Peptide text beside a SMILES is read from it. * marks the point of attachment. CH2CO(D-glucamine) = O=C(C*)NC[C@H](O)[C@@H](O)[C@H](O)[C@H](O)CO; NH(1-deoxy-D-glucityl) = OC[C@@H](O)[C@@H](O)[C@H](O)[C@@H](O)CN*; Ala(imidazo(1,2-a)pyr3yl) = N[C@@H](Cc1cnc2ccccn12)C(=O)O; Trp(1-CH2COOH) = N[C@@H](Cc1cn(CC(=O)O)c2ccccc12)C(=O)O; CH2CON(CH2CH2)2NCH2COOH = O=C(O)CN1CCN(C(=O)C*)CC1; NMePhe(4-COOH) = CN[C@@H](Cc1ccc(C(=O)O)cc1)C(=O)O; Nle(6-morpholino) = N[C@@H](CCCCN1CCOCC1)C(=O)O; Phe(3-COOH) = N[C@@H](Cc1cccc(C(=O)O)c1)C(=O)O; Trp(7-aza) = N[C@@H](Cc1c[nH]c2ncccc12)C(=O)O; NH(CH2CH2O)8Me = COCCOCCOCCOCCOCCOCCOCCOCCN*; NMePhe(3-Cl) = CN[C@@H](Cc1cccc(Cl)c1)C(=O)O; Piperazinyl(4-CH2COOH) = O=C(O)CN1CCN(*)CC1; Trp(1-Me) = Cn1cc(C[C@H](N)C(=O)O)c2ccccc21; 3Pal(6-NH2) = Nc1ccc(C[C@H](N)C(=O)O)cn1; X6 = Cc1cc(C[C@H](N[*:1])C(=O)[*:2])ccn1; Lys(N3) = [N-]=[N+]=NCCCC[C@H](N)C(=O)O; NMeY = CN[C@@H](Cc1ccc(O)cc1)C(=O)O; Nva(3-Et) = CCC(CC)[C@H](N)C(=O)O; 4Pal = N[C@@H](Cc1ccncc1)C(=O)O; PEG4 = NCCOCCOCCOCCOCCC(=O)O; Carboxymethyl = O=C(O)C*; CO = O=C([*:1])[*:2]

What was measured:
[1] = molecular target: T1, human transferrin receptor (hTfR) (Homo sapiens, UniProt P02786); assay: SPR measurement under pH 7.4 conditions (Biacore T200, CM3 chip, hTfR captured by His Tag antibody); format: binding; settings: read-out: hTfR SPR pH7.4 KD
T1 sequence (P02786 whole entry): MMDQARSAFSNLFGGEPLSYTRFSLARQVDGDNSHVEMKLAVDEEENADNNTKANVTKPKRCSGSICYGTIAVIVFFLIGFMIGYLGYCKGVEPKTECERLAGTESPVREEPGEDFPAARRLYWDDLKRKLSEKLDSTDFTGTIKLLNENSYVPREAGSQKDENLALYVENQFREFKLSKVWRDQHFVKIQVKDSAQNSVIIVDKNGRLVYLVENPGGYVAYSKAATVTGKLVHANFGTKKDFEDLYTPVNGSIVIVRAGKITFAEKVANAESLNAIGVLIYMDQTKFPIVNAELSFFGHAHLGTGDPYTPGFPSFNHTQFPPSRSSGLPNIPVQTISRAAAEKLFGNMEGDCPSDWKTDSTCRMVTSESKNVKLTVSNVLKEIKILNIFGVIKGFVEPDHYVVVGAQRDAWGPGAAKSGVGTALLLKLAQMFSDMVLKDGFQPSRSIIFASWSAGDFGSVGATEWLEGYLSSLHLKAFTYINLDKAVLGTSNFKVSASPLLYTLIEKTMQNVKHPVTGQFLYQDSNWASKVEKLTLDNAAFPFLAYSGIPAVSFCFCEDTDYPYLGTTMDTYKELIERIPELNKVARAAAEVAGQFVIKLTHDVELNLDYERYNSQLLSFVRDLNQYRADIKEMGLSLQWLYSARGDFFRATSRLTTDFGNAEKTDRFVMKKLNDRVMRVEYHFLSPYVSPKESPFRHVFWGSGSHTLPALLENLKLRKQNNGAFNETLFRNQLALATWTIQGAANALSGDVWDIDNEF
Experimental: (§1) Molecular interactions between the synthesized peptides and the transferrin receptor (hTfR) were evaluated by surface plasmon resonance (SPR) using the following method. The specific assay procedure is described below.
An CM3 sensor chip (Cytiva) was inserted into BiacoreT200 (Cytiva), then a priming operation was performed three times by using a running buffer: HBS-P+, pH7.4 (Cytiva), and an equilibrium state was created at a flow rate of […]. Ligand immobilization was performed at a flow rate of 10 µL/min. After mixing 50 µL each of 60 mM EDC solution (Cytiva) and 650 mM NHS solution (Cytiva), the mixture was reacted at a flow rate of 10 µL/min for 420 seconds. 150 µL of […] THE His Tag Antibody, mAb, Mouse (GenScript) was prepared by diluting with 10 mM acetic acid solution (pH 5.0), and reacted at a flow rate of 10 µL/ min for 420 seconds. Then, THE His Tag Antibody, mAb, Mouse (GenScript) was immobilized as a capture molecule on the CM3 sensor chip. After immobilization, capping was performed by reacting with 1.0 M ethanolamine solution (Cytiva) at a flow rate of 10 µL/min for 420 seconds. 300 nM hTfR was captured at a flow rate of 10 µL/min, a peptide solution prepared at 10 mM in DMSO was diluted with running buffer to achieve a final concentration of 10 µM, and peptide solutions at 250 nM, 125 nM, 62.5 nM, 25 nM, and 12.5 nM were prepared. . The peptide samples were reacted at a flow late of 30 µL/min for 120 seconds, followed by dissociation for 600 seconds. The kinetics of the peptide against hTfR was obtained by SPR measurement for the above samples.
(§2) The kinetic evaluation model was single-cycle kinetics, and curve fitting was performed using Biacore T200 Evaluation Software Version 3.0 (Cytiva). The binding of the peptide to hTfR was evaluated by performing curve fitting on the obtained sensorgram by the least squares method and obtaining the kon value, the koff value, and the KD value.

[2] = molecular target: T1, human transferrin receptor (hTfR); assay: SPR measurement under pH 6.0 conditions (Biacore T200, NTA chip, immobilized hTfR); format: binding; settings: read-out: hTfR SPR pH6.0 KD
Experimental: as §1
An NTA sensor chip (Cytiva) was inserted in a Biacore T200 (Cytiva), a priming operation was performed 3 times with a running buffer: HBS-P+ pH 6.0 (Cytiva), and an equilibrium state was created at a flow rate of 30 µL/min. A ligand immobilization operation was carried out at a flow rate of 10 µL/min.
The surface of the NTA sensor chip was washed with 350 mM EDTA solution, nickel ions were loaded into the carbomethyldextran chains of the sensor chip with a 500 µM aqueous nickel chloride solution, and then washing was performed with 3 mM EDTA solution. After mixing 50 µL of each of 60 mM EDC solution (Cytiva) and 650 mM NHS solution (Cytiva), the mixture was reacted for 420 seconds at a flow rate of 10 µL/min. 150 µL of 0.2 µM hTfR solution was prepared by diluting with 10 mM acetic acid solution (pH 5.0), and reacted for 420 seconds at a flow rate of 10 µL/min to immobilize hTfR on the NTA sensor chip. For the human transferrin receptor (hTfR), the recombinant hTfR described in Example 2 of WO2018/124121 was used. After immobilization, capping was performed by reacting with 1.0 M ethanolamine aqueous solution (Cytiva) at a flow rate of 10 µL/min for 420 seconds. Peptide lysate prepared in DMSO to 10 mM was diluted with the running buffer to a final concentration of 10 µM peptide lysate, and then peptide solutions of 250 nM, 125 nM, 62.5 nM, 25 nM, and 12.5 nM were prepared. The kinetics of the peptide against hTfR was obtained by SPR measurement using the above samples.
as §2

[3] = SPR, pH 7.4, peptide with the linker named in the table
[4] = SPR, pH 6.0, peptide with the linker named in the table

Structure (SMILES)	Kd ([1]; pH 7.4, single-cycle kinetics) [nM]	Kd ([2]; pH 6.0, single-cycle kinetics) [nM]	Kd [2, 4] [nM]	other results
CCC(CC)[C@@H]1NC(=O)[C@H](Cc2ccc(OC)cc2)NC(=O)[C@H](Cc2ccc(N)nc2)NC(=O)[C@H](CC(N)=O)NC(=O)[C@H](Cc2cnc3ccccn23)NC(=O)[C@H](C(C)C)NC(=O)[C@H](Cc2cccc(Cl)c2)N(C)C(=O)[C@H](C(C)C)NC(=O)[C@H](C)NC(=O)CSC[C@@H](C(=O)NCC(=O)N[C@@H](CCCCN=[N+]=[N-])C(N)=O)NC(=O)[C@H](Cc2ccc(C(=O)O)cc2)N(C)C(=O)[C@H](Cc2ccncc2)NC(=O)[C@H](CCCNC(=N)N)NC(=O)[C@H](CCCNC(=N)N)NC(=O)[C@H]([C@@H](C)CC)NC1=O [compound 181] ({CH2CO}-AV[NMePhe(3-Cl)]V[Ala(imidazo(1,2-a)pyr3yl)]N[3Pal(6-NH2)]Y(Me)[Nva(3-Et)]IRR[4Pal][NMePhe(4-COOH)]CG[Lys(N3)]-NH2; thioether N-15)	24.5	124		
CCC(CC)[C@@H]1NC(=O)[C@H](Cc2ccc(OC)cc2)NC(=O)[C@H](Cc2ccc(O)cc2)NC(=O)[C@H](CC(N)=O)NC(=O)[C@H](Cc2cn(C)c3ccccc23)NC(=O)[C@H](C(C)C)NC(=O)[C@H](Cc2cccc(Cl)c2)N(C)C(=O)[C@H](C(C)C)NC(=O)[C@H](C)NC(=O)CSC[C@@H](C(=O)NCCOCCOCCOCCOCCC(N)=O)NC(=O)[C@H](Cc2ccc(O)cc2)N(C)C(=O)[C@H](Cc2ccncc2)NC(=O)[C@H](CCCNC(=N)N)NC(=O)[C@H](CCCCN)NC(=O)[C@H]([C@@H](C)CC)NC1=O [compound 128] ({CH2CO}-AV[NMePhe(3-Cl)]V[Trp(1-Me)]NYY(Me)[Nva(3-Et)]IKR[4Pal][NMeY]C[PEG4]-NH2; thioether N-15)			3.23	Kd [1, 3]: 1.1 nM
CC[C@H](C)[C@@H]1NC(=O)[C@H](Cc2ccc(OCC(=O)O)cc2)NC(=O)[C@H](Cc2ccc(N)nc2)NC(=O)[C@H](CC(N)=O)NC(=O)[C@H](Cc2c[nH]c3ncccc23)NC(=O)[C@H](C(C)C)NC(=O)[C@H](Cc2cccc(Cl)c2)N(C)C(=O)[C@H](C(C)C)NC(=O)[C@H](C)NC(=O)CSC[C@@H](C(=O)NCCOCCOCCOCCOCCC(N)=O)NC(=O)[C@H](Cc2ccc(O)cc2)N(C)C(=O)[C@H](Cc2ccncc2)NC(=O)[C@H](CCCCNC(=O)N2CCN(CC(=O)O)CC2)NC(=O)[C@H](CCCCN2CCOCC2)NC(=O)[C@H]([C@@H](C)CC)NC1=O [compound 9] ({CH2CO}-AV[NMePhe(3-Cl)]V[Trp(7-aza)]N[3Pal(6-NH2)]Y(Carboxymethyl)II[Nle(6-morpholino)]K([CO-Piperazinyl(4-CH2COOH)])[4Pal][NMeY]C[PEG4]-NH2; thioether N-15)	29.1	774		
CC[C@H](C)[C@@H]1NC(=O)[C@H](Cc2ccc(OC)cc2)NC(=O)[C@H](Cc2ccc(O)cc2)NC(=O)[C@H](CC(N)=O)NC(=O)[C@H](Cc2c[nH]c3ncccc23)NC(=O)[C@H](C(C)C)NC(=O)[C@H](Cc2cccc(Cl)c2)N(C)C(=O)[C@H](C(C)C)NC(=O)[C@H](C)NC(=O)CSC[C@@H](C(=O)NCCOCCOCCOCCOCCC(N)=O)NC(=O)[C@H](Cc2ccc(O)cc2)N(C)C(=O)[C@H](CCC(=O)NCCOCCOCCOCCOCCC(=O)O)NC(=O)[C@H](CCCNC(=N)N)NC(=O)[C@H](CCC(=O)NCCOCCOCCOCCOCCC(=O)O)NC(=O)[C@H]([C@@H](C)CC)NC1=O [compound 145] ({CH2CO}-AV[NMePhe(3-Cl)]V[Trp(7-aza)]NYY(Me)IIE(PEG4)RE(PEG4)[NMeY]C[PEG4]-NH2; thioether N-15)			199	Kd [1, 3]: 48.5 nM
CC[C@H](C)[C@@H]1NC(=O)[C@H](Cc2ccc(OCC(=O)N3CCN(CC(=O)O)CC3)cc2)NC(=O)[C@H](Cc2ccc(O)cc2)NC(=O)[C@H](CC(N)=O)NC(=O)[C@H](Cc2c[nH]c3ccccc23)NC(=O)[C@H](C(C)C)NC(=O)[C@H](Cc2cccc(Cl)c2)N(C)C(=O)[C@H](C(C)C)NC(=O)[C@H](C)NC(=O)CSC[C@@H](C(=O)NCCOCCOCCOCCOCCC(N)=O)NC(=O)[C@H](Cc2ccc(O)cc2)N(C)C(=O)[C@H](Cc2cccc(C(=O)O)c2)NC(=O)[C@H](CCCCN2CCOCC2)NC(=O)[C@H](CCC(=O)NCCOCCOCCOCCOCCOCCOCCOCCOC)NC(=O)[C@H]([C@@H](C)CC)NC1=O [compound 31] ({CH2CO}-AV[NMePhe(3-Cl)]VWNYY(CH2CON(CH2CH2)2NCH2COOH)IIE(NH(CH2CH2O)8Me)[Nle(6-morpholino)][Phe(3-COOH)][NMeY]C[PEG4]-NH2; thioether N-15)	2.43	17.1		
CCC(CC)[C@@H]1NC(=O)[C@H](Cc2ccc(OCC(=O)O)cc2)NC(=O)[C@H](Cc2ccc(O)cc2)NC(=O)[C@H](CC(N)=O)NC(=O)[C@H](Cc2cn(CC(=O)O)c3ccccc23)NC(=O)[C@H](C(C)C)NC(=O)[C@H](Cc2cccc(Cl)c2)N(C)C(=O)[C@H](C(C)C)NC(=O)[C@H](C)NC(=O)CSC[C@@H](C(=O)NCCOCCOCCOCCOCCC(N)=O)NC(=O)[C@H](Cc2ccc(O)cc2)N(C)C(=O)[C@H](Cc2ccnc(C)c2)NC(=O)[C@H](CCCNC(=N)N)NC(=O)[C@H](CCC(N)=O)NC(=O)[C@H]([C@@H](C)CC)NC1=O [compound 152] ({CH2CO}-AV[NMePhe(3-Cl)]V[Trp(1-CH2COOH)]NYY(Carboxymethyl)[Nva(3-Et)]IQR[X6][NMeY]C[PEG4]-NH2; thioether N-15)				Kd ([2]; SPR, pH 6.0, Table 2-1-2): 116 nM
CC[C@H](C)[C@@H]1NC(=O)[C@H](Cc2ccc(OCC(=O)NC[C@H](O)[C@@H](O)[C@H](O)[C@H](O)CO)cc2)NC(=O)[C@H](Cc2ccc(O)cc2)NC(=O)[C@H](CC(N)=O)NC(=O)[C@H](Cc2c[nH]c3ccccc23)NC(=O)[C@H](C(C)C)NC(=O)[C@H](Cc2cccc(Cl)c2)N(C)C(=O)[C@H](C(C)C)NC(=O)[C@H](C)NC(=O)CSC[C@@H](C(=O)NCCOCCOCCOCCOCCC(N)=O)NC(=O)[C@H](Cc2ccc(O)cc2)N(C)C(=O)[C@H](Cc2ccccc2)NC(=O)[C@H](CCC(N)=O)NC(=O)[C@H](CCC(=O)NC[C@H](O)[C@@H](O)[C@H](O)[C@H](O)CO)NC(=O)[C@H]([C@@H](C)CC)NC1=O [compound 39] ({CH2CO}-AV[NMePhe(3-Cl)]VWNYY(CH2CO(D-glucamine))IIE(NH(1-deoxy-D-glucityl))QF[NMeY]C[PEG4]-NH2; thioether N-15)		12.4		
CCC(CC)[C@@H]1NC(=O)[C@H](Cc2ccc(O)cc2)NC(=O)[C@H](Cc2ccc(O)cc2)NC(=O)[C@H](CC(N)=O)NC(=O)[C@H](Cc2c[nH]c3ccccc23)N(C)C(=O)[C@H](C(C)C)NC(=O)[C@H](Cc2ccccc2)N(C)C(=O)[C@H](C(C)C)NC(=O)[C@H](C)NC(=O)CSC[C@@H](C(=O)NCCOCCOCCOCCOCCC(N)=O)NC(=O)[C@H](Cc2ccc(O)cc2)N(C)C(=O)[C@H](Cc2ccc(O)cc2)NC(=O)[C@H](CCCNC(=N)N)NC(=O)[C@H](CCCCN)NC(=O)[C@H]([C@@H](C)CC)NC1=O [compound 117]			13.8	
CCC(CC)[C@@H]1NC(=O)[C@H](Cc2ccc(OCC(=O)O)cc2)NC(=O)[C@H](Cc2ccc(NCC(=O)O)nc2)NC(=O)[C@H](CC(N)=O)NC(=O)[C@H](Cc2cn(CC(=O)O)c3ccccc23)NC(=O)[C@H](C(C)C)NC(=O)[C@H](Cc2cccc(Cl)c2)N(C)C(=O)[C@H](C(C)C)NC(=O)[C@H](C)NC(=O)CSC[C@@H](C(=O)NCCOCCOCCOCCOCCC(N)=O)NC(=O)[C@H](Cc2ccc(O)cc2)N(C)C(=O)[C@H](Cc2cccc(C(=O)O)c2)NC(=O)[C@H](CCCNC(=N)N)NC(=O)[C@H](CCC(N)=O)NC(=O)[C@H]([C@@H](C)CC)NC1=O [compound 150]				Kd ([2]; SPR, pH 6.0, Table 2-1-2): 58.9 nM
